# Laboratory results from article PMC3958311 (EMBO Molecular Medicine, 2014).
# Like-named read-outs stand apart in the source and are kept apart here.
# Experiments:
# [1] = test system: M. tuberculosis clinical isolate 6412; assay: Drug susceptibility testing on solid Löwenstein-Jensen medium; type: cell-based; conditions: Mycobacterium tuberculosis
# M. tuberculosis H37Rv [2] = assay: In vitro combination studies, REMA checkerboard; type: cell-based
# [3] = test system: M. tuberculosis clinical isolate 4328; assay: Drug susceptibility testing on solid Löwenstein-Jensen medium; type: cell-based; conditions: Mycobacterium tuberculosis
# M. tuberculosis MDR_CHUV = assay: MIC99 by REMA; type: cell-based, Mycobacterium tuberculosis
# C. glutamicum ATCC 13032 = assay: MIC99 by REMA; type: cell-based, Corynebacterium glutamicum
# [4] = test system: M. tuberculosis clinical isolate 5055; assay: Drug susceptibility testing on solid Löwenstein-Jensen medium; type: cell-based; conditions: Mycobacterium tuberculosis
# M. tuberculosis DprE1 = M. tuberculosis DprE1 (Mycobacterium tuberculosis, UniProt P9WJF1); assay: DprE1 inhibition, two step peroxidase-coupled assay with Amplex Red; type: biochemical
# Sequence of M. tuberculosis DprE1 (P9WJF1 whole entry, looked up): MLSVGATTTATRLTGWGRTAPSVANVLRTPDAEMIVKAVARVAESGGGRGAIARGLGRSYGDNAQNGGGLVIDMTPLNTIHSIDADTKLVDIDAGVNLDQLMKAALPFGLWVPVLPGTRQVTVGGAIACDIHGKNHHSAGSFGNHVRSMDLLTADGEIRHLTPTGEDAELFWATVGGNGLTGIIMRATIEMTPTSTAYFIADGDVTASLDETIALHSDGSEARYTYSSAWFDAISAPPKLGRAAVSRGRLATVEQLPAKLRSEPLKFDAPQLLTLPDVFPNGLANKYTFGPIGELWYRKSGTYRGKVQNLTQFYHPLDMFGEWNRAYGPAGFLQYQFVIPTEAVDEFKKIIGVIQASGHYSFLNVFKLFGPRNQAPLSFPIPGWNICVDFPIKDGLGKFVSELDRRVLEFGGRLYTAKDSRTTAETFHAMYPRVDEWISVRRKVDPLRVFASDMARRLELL
# [5] = mouse
# M. avium ATCC 15769 = assay: MIC99 by REMA; type: cell-based
# M. smegmatis mc^2155 = assay: MIC99 by REMA; type: cell-based, Mycobacterium smegmatis
# M. abscessus 2005-0524 = assay: MIC99 by REMA; type: cell-based
# M. bovis BCG Pasteur = assay: microbe, parasite or virus in culture; type: cell-based, Mycobacterium bovis BCG
# [6] = test system: M. tuberculosis clinical isolate 7384; assay: Drug susceptibility testing on solid Löwenstein-Jensen medium; type: cell-based; conditions: Mycobacterium tuberculosis
# M. vaccae ATCC 15483 = assay: MIC99 by REMA; type: cell-based
# M. marinum Strain M [7] = assay: MIC99 by REMA; type: cell-based, Mycobacterium marinum
# M. tuberculosis H37Rv [8] = type: in vivo, BALB/c mice; conditions: mouse, in vivo
# [9] = test system: M. tuberculosis clinical isolate 6374; assay: Drug susceptibility testing on solid Löwenstein-Jensen medium; type: cell-based; conditions: Mycobacterium tuberculosis
# M. massiliense 2005-0484 = assay: MIC99 by REMA; type: cell-based
# in vivo = conditions: mouse, in vivo
# Procedure: Table S5. Principal pharmacokinetic properties1
# 1 See Figure S5 for primary data.
# Compound levels were measured in serum from individual female mice (3/time point) that had received a single dose of 25 mg/kg. Maximum concentration (Cmax); area under the curve (AUC); apparent clearance.
# Comparative pharmacokinetic analysis. After receiving a single dose
# (25 mg/kg) of PBTZ169 or BTZ043 by gavage, groups of three female mice were sacrificed at the times indicated, blood was obtained by cardiac puncture and the drug levels in serum determined by LC-MS/MS technique (limit of quantification 10 μg/L).
# M. smegmatis GM22 = assay: microbe, parasite or virus in culture; type: cell-based; conditions: for MIC99: M. smegmatis GM22, overproduces NfnB nitroreductase
# M. marinum strain M [10] = type: in vivo, zebrafish (Danio rerio); conditions: zebrafish, in vivo
# M. tuberculosis H37Rv [11] = assay: Drug susceptibility testing on solid Löwenstein-Jensen medium; type: cell-based; conditions: Mycobacterium tuberculosis, H37RV
# [12] = test system: M. tuberculosis clinical isolate 5253; assay: as above; type: cell-based; conditions: Mycobacterium tuberculosis
# [13] = test system: M. tuberculosis clinical isolate 6448; assay: as above; type: cell-based; conditions: Mycobacterium tuberculosis
# zebrafish embryos = type: in vivo, zebrafish (Danio rerio); conditions: zebrafish, in vivo
# Procedure: On examination of infected zebrafish embryos treated with BTZ043 it was observed that the compound affected embryo development (Fig 6A–G) especially at concentrations above 25 nM. […] These defects were also observed when uninfected embryos were exposed to BTZ043.
# Figure 6 Effect of BTZ043 on M. marinum infected zebrafish embryo development. A–D M. marinum infected zebrafish embryos were treated with BTZ043 for 5 days at the concentrations indicated and photographed using a Leica DFC420C camera. The M strain was used for infection. E–F Images of the notochord from untreated and treated zebrafish, arrows indicate developmental abnormalities. G Analysis of zebrafish embryos displaying developmental abnormalities treated with BTZ043 (BTZ) or PBTZ169 (PBTZ) at the concentrations indicated.
# [14] = human
# M. marinum strain E11 = assay: Zebrafish embryo infection model, M. marinum strain E11; conditions: 25 nM for 5, 4 or 3 days
# Procedure: The number of colony forming units (CFU) per embryo was determined and compared to the level of fluorescence.
# Zebrafish embryos were infected with either M. marinum strain M (A, B) or E11 (C, D). […] The bacterial burden was assessed by fluorescence microscopy and customized software to quantify the number of fluorescent pixels (A and C), and by enumeration of the CFU in lysed embryos (B and D), immediately after imaging was performed. In B and D, each data point represents the mean number of CFU per embryo of 3 embryo extracts plated, the bars indicate means and s.e.m. after log transformation. […]
# Volumes of 1 nl of bacterial suspension, containing 50-200 CFU were injected into the caudal vein of embryonic zebrafish at approximately 28 h post fertilization. At 5 days post infection, embryos were monitored using fluorescence microscopy (Leica MZ16FA). Brightfield and fluorescent images were generated with a Leica DFC420C camera and subsequently fluorescent images were analyzed with customized software to quantify infection levels.
# Twelve infected embryos were incubated at 28°C in petri dishes of 4 cm diameter containing 4 ml sterilized egg water (60 μg/ml instant ocean sea salts) with 0.003% 1-phenyl-2-thiourea (Sigma) to prevent melanization. All drug treatment experiments were performed in egg water containing 1% DMSO and analyzed at 5 days post infection (dpi). […]
# [15] = molecular target: T1, purified recombinant M. smegmatis NfnB (Mycolicibacterium smegmatis, UniProt A0R6D0); assay: NfnB-mediated nitroreduction followed by LC-MS; type: biochemical
# T1 construct: made in house
# T1 sequence (A0R6D0 whole entry): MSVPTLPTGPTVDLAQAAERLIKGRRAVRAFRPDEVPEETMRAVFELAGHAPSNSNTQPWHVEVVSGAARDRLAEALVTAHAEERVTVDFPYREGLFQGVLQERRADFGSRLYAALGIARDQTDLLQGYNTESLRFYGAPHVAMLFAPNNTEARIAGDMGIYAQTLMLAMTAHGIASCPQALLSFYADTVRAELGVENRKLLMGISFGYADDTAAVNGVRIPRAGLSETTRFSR
# [16] = test system: M. tuberculosis clinical isolate 6341; assay: Drug susceptibility testing on solid Löwenstein-Jensen medium; type: cell-based; conditions: Mycobacterium tuberculosis
# [17] = test system: M. tuberculosis clinical isolate 6418; assay: as above; type: cell-based; conditions: Mycobacterium tuberculosis
# in vitro [18] = conditions: human, microsomes
# M. tuberculosis H37Rv [19] = assay: MIC by resazurin reduction microplate assay (REMA); type: cell-based, Mycobacterium tuberculosis
# C. diphtheriae DSM 44123 = assay: MIC99 by REMA; type: cell-based, Corynebacterium diphtheriae
# M. bovis BCG BN2 = type: cell-based, Mycobacterium bovis BCG
# in vitro [20] = conditions: mouse, microsomes
# M. bolletii 1999-0888 = assay: MIC99 by REMA; type: cell-based
# M. smegmatis MN47 = type: cell-based; conditions: M. smegmatis MN47, DprE1 Cys394Gly
# M. smegmatis MN84 = type: cell-based; conditions: M. smegmatis MN84, DprE1 Cys394Ser
# [21] = Mycobacterium tuberculosis, H37RV
compound,measurement,setting,value
O=c1nc(N2CCN(CC3CCCCC3)CC2)sc2c([N+](=O)[O-])cc(C(F)(F)F)cc12 [PBTZ169],MIC,[1],0.031 µg/mL
same,ΣFIC (sum of the fractional inhibitory concentrations),M. tuberculosis H37Rv [2],0.5
same,selectivity index,HepG2 human cell line; HepG2 cytotoxicity relative to MIC,> 10 000
same,TD99,HepG2 human cell line; human,> 200 µg/mL
same,MIC,[3],0.063 µg/mL
same,MIC99,M. tuberculosis MDR_CHUV; Mycobacterium tuberculosis,0.0004 µg/mL
same,MIC99,"C. glutamicum ATCC 13032; Corynebacterium glutamicum, ATCC13032",0.013 µg/mL
same,MIC,[4],0.063 µg/mL
same,concentration giving full inhibition of DprE1,M. tuberculosis DprE1,5 µM
same,clearance on incubation with microsomes (in words),[5],medium clearance values
same,MIC99,"M. avium ATCC 15769; Mycobacterium avium, ATCC15769",> 100 µg/mL
same,MIC99,"M. smegmatis mc^2155; Mycolicibacterium smegmatis, MC^2155",0.0007 µg/mL
same,MIC99,"M. abscessus 2005-0524; Mycobacteroides abscessus, 20050524",> 100 µg/mL
same,MIC99,"M. bovis BCG Pasteur; Mycobacterium tuberculosis variant bovis BCG, BCG",0.0006 µg/mL
same,MIC,[6],0.063 µg/mL
same,MIC99,"M. vaccae ATCC 15483; Mycolicibacterium vaccae, ATCC15483",> 100 µg/mL
same,MIC99,M. marinum Strain M [7]; Mycobacterium marinum,0.0003 µg/mL
same,activity in dose escalation study (in words),M. tuberculosis H37Rv [8],active at all the concentrations tested
same,reduction of CFU in the lungs in comparison to BTZ043 at the same dose,M. tuberculosis H37Rv [8],> 0.5 log
same,"reduction of bacterial burden in the spleens, fold more than BTZ043",M. tuberculosis H37Rv [8],10 fold
same,MIC,[9],0.063 µg/mL
same,MIC99,"M. massiliense 2005-0484; Mycobacteroides abscessus, 20050484",> 100 µg/mL
same,time the serum level remains well above MIC,in vivo; female,> 21 h
same,Cmax,"in vivo; female, po, 25 mg/kg",1850 ng/mL
same,half-life,"in vivo; female, po, 25 mg/kg",1.85 h
same,k el,"in vivo; female, po, 25 mg/kg",0.000104 s⁻¹
same,AUC,"in vivo; po, 25 mg/kg",193487 µg·min/L
same,MIC,"M. smegmatis GM22; Mycolicibacterium smegmatis, GM22, read-out: MIC for GM22",0.005 µg/mL
same,MIC99,"M. smegmatis GM22; Mycolicibacterium smegmatis, read-out: MIC99",0.003 µg/mL
same,bacterial burden in infected zebrafish embryos (fluorescence),M. marinum strain M [10],almost no bacteria were present
same,decrease in number of CFU per embryo,M. marinum strain M [10],about 3 log units
same,effect on the infection in zebrafish embryos,M. marinum strain M [10],no significant effect
same,MIC,M. tuberculosis H37Rv [11],0.031 µg/mL
same,MIC,[12],0.063 µg/mL
same,MIC,[13],0.063 µg/mL
same,developmental defects in zebrafish embryos (in words),zebrafish embryos,no developmental defects were seen
same,clearance on incubation with microsomes (in words),[14],medium clearance values
same,decrease in number of CFU per embryo,M. marinum strain E11,~2 log units
same,"NfnB-mediated reduction, species found by LC-MS",[15],the major species found in the LC-MS analysis was the original nitro form
same,MIC,[16],0.031 µg/mL
same,MIC,[17],0.063 µg/mL
same,microsomal CLint,in vitro [18],24.8 µL/min/mg
same,MIC,M. tuberculosis H37Rv [19]; [21],≤ 0.00019 µg/mL
same,MIC99,M. tuberculosis H37Rv [19]; [21],0.0003 µg/mL
same,MIC,"M. tuberculosis H37Rv [19]; Mycobacterium tuberculosis, H37RV, read-out: MIC M. tuberculosis",≤ 0.00019 µg/mL
same,MIC99,"C. diphtheriae DSM 44123; Corynebacterium diphtheriae, DSM44123",0.003 µg/mL
same,MIC99,M. bovis BCG BN2,>100 µg/mL
same,fold increased resistance conferred by the Cys387Ser mutation in DprE1,M. bovis BCG BN2,> 10 000 fold
same,microsomal CLint,in vitro [20],24.3 µL/min/mg
same,MIC99,"M. bolletii 1999-0888; Mycobacteroides abscessus, 19990888",> 100 µg/mL
moxifloxicin [MXF],MIC99,M. smegmatis MN47,0.06 µg/mL
same,MIC99,M. tuberculosis MDR_CHUV,0.03 µg/mL
same,MIC99,C. glutamicum ATCC 13032,0.31 µg/mL
same,MIC99,M. smegmatis MN84,0.06 µg/mL
same,MIC99,M. avium ATCC 15769,0.47 µg/mL
same,MIC99,M. smegmatis mc^2155,0.06 µg/mL
same,MIC99,M. abscessus 2005-0524,0.78 µg/mL
same,MIC99,M. bovis BCG Pasteur,0.02 µg/mL
same,MIC99,M. vaccae ATCC 15483,0.63 µg/mL
same,MIC99,M. marinum Strain M [7],0.1 µg/mL
same,MIC99,M. massiliense 2005-0484,0.96 µg/mL
same,MIC99,M. smegmatis GM22,0.06 µg/mL
same,MIC99,M. tuberculosis H37Rv [19],0.03 µg/mL
same,MIC99,C. diphtheriae DSM 44123,0.02 µg/mL
same,MIC99,M. bovis BCG BN2,0.03 µg/mL
same,MIC99,M. bolletii 1999-0888,0.94 µg/mL
